Tested on: Boophilus microplus, Biarra-Stamm
Assay: Tick test (Zeckentest): in vitro test for inhibition of egg laying after dipping adult engorged female ticks
Type: in vivo
Details: Rhipicephalus microplus, 480 h, resistant Biarra strain, 1 min dip, read after 20 days, read-out: 50 % Hemmung bei einer Wirkstoffkonzentration in ppm a.i. von
Excerpt: Lösungsmittel: 35 Gewichtsteile Ethylenglykolmonomethylether 35 Gewichtsteile Nonylphenolpolyglykolether
Zwecks Herstellung einer geeigneten Formulierung vermischt man drei Gewichtsteile Wirkstoff mit sieben Teilen des oben angegebenen Lösungsmittel-Emulgator-Gemisches und verdünnt das so erhaltene Emulsionskonzentrat mit Wasser auf die jeweils gewünschte Konzentration.
In diese Wirkstoffzubereitungen werden adulte, vollgesogene Zeckenweibchen der Art Boophilus microplus (resistent) eine Minute lang getaucht. Nach dem Tauchen von je 10 weiblichen Exemplaren überführt man diese in Petrischalen, deren Boden mit einer entsprechend großen Filterscheibe belegt ist.
Nach 20 Tagen wird die Wirksamkeit der Wirkstoffzubereitung bestimmt durch Ermittlung der Hemmung der Eiablage gegenüber unbehandelten Kontrollzecken. Die Wirkung drückt man in Prozent aus, wobei 100 % bedeutet, daß keine Eier mehr abgelegt wurden und 0 % besagt, daß die Zecken Eier in normaler Menge ablegten.
Untersuchter Wirkstoff, geprüfte Konzentrationen, getestete Parasiten und erhaltene Befunde gehen aus der folgenden Tabelle hervor.

IC50: > 5000 µg/mL
Structure (SMILES): Cc1cc(Cl)ccc1NC(=S)N(C)C [Chloromethiuron]

From patent publication EP0073394A1, “2-Arylazo-2-imidazolines, acyl derivatives of the same, process for their preparation and the use in the control of ectoparasites and/or endoparasites” (BAYER AG, priority 1981, dated 1983)
